Like-named read-outs stand apart in the source and are kept apart here.
Assays:
[1] = tested on: TM287/288; assay: Hoechst 33342 stimulated ATPase activity of TM287/288 reconstituted into proteoliposomes; format: biochemical, Thermotoga maritima; conditions: 50, 100 and 150 µM Hoechst 33342, 50°C, wildtype and spin-labeled mutants, maximal at 50 or 100 µM, bell-shaped
Experimental: To carry out DEER measurements in a lipidic environment (pair 131^TM288/248^TM288) as well as for the investigation of drug-stimulated ATPase activity of all pairs, spin-labeled TM287/288 was reconstituted into proteoliposomes consisting of E. coli polar lipids and egg phosphatidylcholine mixed at a ratio of 3:1 in 50 mM K-HEPES pH 7.0 as described elsewhere ([Hürlimann et al., 2016]; [Geertsma et al., 2008]). […] Reconstituted TM287/288_E517Q^TM288 was used for background subtraction.

[2] = molecular target: T1, TM287/288 (Thermotoga maritima, UniProt Q9WYC3+Q9WYC4, C28S/C496S/C519S/C558S/C73S); assay: Inhibition of ATPase activity of TM287/288 by vanadate and nucleotides; format: biochemical; conditions: for IC50: 500 µM ATP; for Ki: calculated from IC50 and Km
Experimental: Nucleotide binding and hydrolysis follow a complex mechanism in heterodimeric ABC exporters, due to the existence of a degenerate and a consensus site in the NBDs. […] Using the relation IC50=Ki(1+[S]/Km), Ki values for the respective nucleotides were determined (Table 2). […] It is well established that ATPγS is slowly hydrolyzed by ATPases, as for example the F1Fo-ATPase ([Turina and Capaldi, 1994]). […] It is reasonable to assume that TM287/288 is as well capable of slow ATPγS hydrolysis. In addition, we tested whether TM287/288 hydrolyzes AMP-PNP. In contrast to ATPγS, hydrolysis of AMP-PNP releases Pi, which can be detected by the molybdate/malachite green method.
(§1) in which f corresponds to the ATPase activity at the respective inhibitor concentration divided by the ATPase activity in the absence of inhibitor normalized to 100%, y0 corresponds to the residual activity at infinite inhibitor concentration, a corresponds to the maximal degree of inhibition (a+y0=100%) and x corresponds to the inhibitor concentration.
(§2) Ki values were calculated according to the formula Ki=IC50/(1+[S]/Km)
(§3) IC50 and Km values were obtained from data fitting as outlined above.
(§4) Standard errors for the Ki values were calculated by error propagation: σKi = (Km/Km+[S])^2 σIC502+ ([S]IC50/(Km+[S])^2)^2 σKm2
(§5) in which the σIC50 and σKm are standard errors obtained from data fitting in SigmaPlot and σKi is the standard error for Ki .

[3] = molecular target: T2, BmrCD (Bacillus subtilis, UniProt O07549+O07550, C154A/C256A/C351A); assay: Inhibition of ATPase activity of BmrCD by nucleotide analogs; format: biochemical
T2 construct: made in house; host or cells: E. coli MC1061
T2 sequence (O07550 whole entry): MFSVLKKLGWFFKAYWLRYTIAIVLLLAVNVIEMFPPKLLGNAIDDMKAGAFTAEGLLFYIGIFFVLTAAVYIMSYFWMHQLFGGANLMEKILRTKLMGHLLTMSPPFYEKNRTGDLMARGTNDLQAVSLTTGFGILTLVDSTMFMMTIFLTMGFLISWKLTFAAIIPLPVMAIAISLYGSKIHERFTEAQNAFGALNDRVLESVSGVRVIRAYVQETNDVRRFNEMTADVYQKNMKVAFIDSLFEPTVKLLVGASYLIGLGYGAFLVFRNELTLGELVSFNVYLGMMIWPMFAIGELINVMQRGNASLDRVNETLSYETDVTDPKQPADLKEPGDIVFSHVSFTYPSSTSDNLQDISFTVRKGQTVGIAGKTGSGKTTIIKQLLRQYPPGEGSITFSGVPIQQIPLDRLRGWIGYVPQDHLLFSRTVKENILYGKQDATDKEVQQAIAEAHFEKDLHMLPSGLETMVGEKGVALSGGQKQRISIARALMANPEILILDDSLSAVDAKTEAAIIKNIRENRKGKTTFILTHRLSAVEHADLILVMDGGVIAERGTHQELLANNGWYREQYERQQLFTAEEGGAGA
T2 sequence (O07549 whole entry C154A/C256A/C351A): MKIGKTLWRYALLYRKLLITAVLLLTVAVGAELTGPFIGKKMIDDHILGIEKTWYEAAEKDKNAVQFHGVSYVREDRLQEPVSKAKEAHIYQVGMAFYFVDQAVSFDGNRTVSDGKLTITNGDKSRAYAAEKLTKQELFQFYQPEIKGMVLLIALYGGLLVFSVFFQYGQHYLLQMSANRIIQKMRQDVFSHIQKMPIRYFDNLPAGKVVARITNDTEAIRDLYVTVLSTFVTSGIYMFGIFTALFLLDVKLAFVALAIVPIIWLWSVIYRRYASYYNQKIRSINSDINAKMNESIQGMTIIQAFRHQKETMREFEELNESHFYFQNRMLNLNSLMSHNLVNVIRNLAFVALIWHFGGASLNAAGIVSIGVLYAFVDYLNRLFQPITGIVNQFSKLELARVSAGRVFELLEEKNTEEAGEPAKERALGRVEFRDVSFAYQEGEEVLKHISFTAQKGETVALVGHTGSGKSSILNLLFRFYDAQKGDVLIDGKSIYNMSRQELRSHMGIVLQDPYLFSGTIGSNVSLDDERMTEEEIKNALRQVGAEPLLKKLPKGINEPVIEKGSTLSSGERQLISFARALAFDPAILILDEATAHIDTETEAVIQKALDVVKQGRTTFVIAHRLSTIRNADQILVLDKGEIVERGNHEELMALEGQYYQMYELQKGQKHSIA
Experimental: as §1, §2, §3, §4, §5

[4] = tested on: ABCB1; set-up: method as in Siarheyeva et al., 2010; conditions: ref Siarheyeva et al., 2010; cited from earlier work
[5] = tested on: TM287/288; assay: DEER two-Gaussian fit of IF/OF populations, wildtype TM287/288; set-up: species or system Thermotoga maritima; conditions: estimated errors 10%
Experimental: All nucleotides and nucleotide analogs used in this study were added at saturating conditions well above their Ki values (Table 2). […] Therefore, the IF/OF fractions detected in the sample reflect the average life time that the nucleotide-bound transporter spends in either conformation. To rank the nucleotides in terms of their ability to support the transition to the OF conformation, we used three representative pairs in the wildtype transporter and the E-to-Q mutant: one in the extracellular region (50^TM287/271^TM287), one in the intracellular region (131^TM288/248^TM288) of the TMDs, and one in the NBDs (460^TM287/363^TM288) for which the distance peaks corresponding to the two states were distinguishable. A two-Gaussian fit of the DEER traces was performed to obtain the area of the corresponding IF and OF distance peaks (Figure 5—source data 1). The rank of nucleotides with respect to increasing fractions of the OF populations (Figure 5A) was: ADP-Mg ≈ AMP-PNP-Mg < ATP-EDTA < ATPγS-Mg < ATP-Mg < ATP-Vi-Mg. The order is similar for the wildtype and E-to-Q mutant transporter. However, the OF state is in general more populated in the E-to-Q mutant, which is best explained by an alteration of the energy profile caused by the mutation. This notion is best appreciated for ATP-EDTA and ATP-Mg, which could trigger an almost complete switch in the molecular ensemble of the E-to-Q mutant (Figure 5B).
The labeling efficiency of the double cysteine mutants of the transporters solubilized in detergent was measured at 25°C using an X-band Miniscope 400 EPR spectrometer (Magnettech by Freiberg Instrument). Samples were loaded into glass capillaries with the inner diameter of 0.9 mm and spectra were measured with 14 mT field sweep, 0.15 mT modulation amplitude, 2.5 mW microwave power. The calculated spin labeling efficiencies of the twelve mutants ranged between 70–90% (the second integral of the EPR spectra was calculated with the software available at spintoolbox.com). The high degree of labeling is correlated with the 0.3–0.4 modulation depths of all Q-band DEER traces presented. For DEER measurements, 10% v/v D8- glycerol was added prior to snap freezing. The range of final protein concentrations was 12 to 41 µM. 40 µL of sample were loaded in quartz tubes with 3 mm outer diameter. If not stated differently, samples were incubated at 25°C for 10 min (TM287/288 and MsbA) or 15 min (BmrCD) and snap frozen in liquid nitrogen. To study the effect of high physiological temperatures on the frozen dynamics of the transporter, samples were loaded in the quartz tubes, incubated for 3 min at 80°C on a heat block and snap frozen in a mixture of isopentane and liquid nitrogen to minimize the freezing time. […] The nucleotide analogs AMP-PNP-Mg and ATPγS-Mg (2.5 mM) were also prepared in the presence of 2.5 mM MgCl2. In case of ADP-Mg, 2.5 mM ADP and 2.5 mM MgCl2 were added.
Double electron-electron resonance (DEER) measurements were performed at 50 K on a Bruker ELEXSYS E580Q-AWG (arbitrary wave generator) dedicated pulse Q-band spectrometer equipped with a 150 W TWT amplifier. A 4-pulse DEER sequence with rectangular, non-selective observer and pump pulses of 14 or 16 ns length (depending on the available B1 at the sample) with 100 MHz frequency separation was used ([Polyhach et al., 2012]). Due to the coherent nature of the AWG generated pulses, a four-step phase cycling (0 – π/2 - π – 3/2π) of the pump π pulse was performed to remove unwanted effects of running echoes from the DEER trace. The evaluation of the DEER data was performed using DeerAnalysis2015 ([Jeschke et al., 2006]). The background of the primary DEER traces was corrected using stretched exponential functions with homogeneous dimensions of 1.5 to 3 for different samples. A model-free Tikhonov regularization was used to extract distance distributions from the background corrected form factors. […]

[6] = molecular target: T1, TM287/288; assay: ATPase activity of detergent-purified wildtype TM287/288 (molybdate/malachite green phosphate detection); format: biochemical
[7] = spin-labeled pair 50^TM287-271^TM287 WT
[8] = spin-labeled pair 131^TM288-248^TM288 WT
[9] = spin-labeled pair 460^TM287-363^TM288 WT
[10] = TM287/288, 50°C, read-out: IC50
[11] = wildtype TM287/288, ATP-Mg + 1 mM vanadate, 50°C, detergent
[12] = wildtype TM287/288, ATP-Mg + 2.5 mM EDTA, 50°C, detergent

Structure (SMILES): CCOc1ccc(-c2nc3ccc(-c4nc5ccc(N6CCN(C)CC6)cc5[nH]4)cc3[nH]2)cc1 [Hoechst 33342]
- stimulation of ATPase activity [1]: robust ATPase stimulation

Structure (SMILES): Nc1ncnc2c1ncn2[C@@H]1O[C@H](CO[P@](=O)(O)O[P@](=O)(O)O[P@@](=O)(O)S)[C@@H](O)[C@H]1O [ATPγS]
- IC50 ([2]; IC50, TM287/288, 25°C): 31.4 ± 2.8 µM
- IC50 ([2]; IC50, TM287/288, 50°C): 2.86 ± 0.08 µM
- Ki ([2]; Ki, TM287/288, 25°C): 0.204 ± 0.032 µM
- Ki ([2]; Ki, TM287/288, 50°C): 0.0439 ± 0.0062 µM
- IC50 [3]: 221 ± 24 µM
- Ki [3]: 26.7 ± 3.3 µM
- rate of hydrolysis of ATPγS relative to that determined for ATP [4]: 0.4%
- IF frac [5, 7]: 45.2%
- OF frac [5, 7]: 54.8%
- IF frac [5, 8]: 72.9%
- OF frac [5, 8]: 27.1%
- IF frac [5, 9]: 63.7%
- OF frac [5, 9]: 36.3%

Structure (SMILES): [Na+].[Na+].[Na+].[O]=[V]([O-])([O-])[O-] [Vanadate, sodium orthovanadate]
- residual ATPase activity ([2]; 1 mM vanadate, 50°C, TM287/288): 8%
- IC50 [2, 10]: 4.9 ± 0.29 µM
- Ki ([2]; TM287/288, 50°C, read-out: Ki): 0.0751 ± 0.0114 µM
- ATPase activity [2, 11]: 165 ± 20 nmol Pi/min/mg protein
- ATPase activity, % of wildtype [2, 11]: 7.71%
- Turnover per transporter [2, 11]: 21.9 min⁻¹
- turnover rate, ATP hydrolysis inhibited by vanadate ([2]; wildtype TM287/288, vanadate, 50°C): 22 ATP min^−1

Structure (SMILES): O=C(O)CN(CCN(CC(=O)O)CC(=O)O)CC(=O)O [EDTA]
- ATPase activity in the presence of EDTA ([6]; 2.5 mM EDTA added to chelate Mg2+, wildtype TM287/288): did not observe any detectable ATPase activity
- ATPase activity [6, 12]: <0.1 nmol Pi/min/mg protein
- ATPase activity, % of wildtype [6, 12]: <0.005%
- Turnover per transporter [6, 12]: <0.01 min⁻¹

Structure (SMILES): Nc1ncnc2c1ncn2[C@@H]1O[C@H](COP(=O)(O)OP(=O)(O)O)[C@@H](O)[C@H]1O [ADP]
- IC50 ([2]; TM287/288, 25°C, read-out: IC50): 505 ± 21 µM
- Ki ([2]; TM287/288, 25°C, read-out: Ki): 3.28 ± 0.44 µM
- IC50 [2, 10]: 681 ± 160 µM
- Ki ([2]; TM287/288, 50°C, read-out: Ki): 10.4 ± 2.9 µM
- IF frac [5, 7]: 90.1%
- OF frac [5, 7]: 9.9%
- IF frac [5, 8]: 100%
- OF frac [5, 8]: 0%
- IF frac [5, 9]: 82%
- OF frac [5, 9]: 18%
